Laboratory results reported in ChEMBL document CHEMBL1909046, “DrugMatrix in vitro pharmacology data”.

Target: T1, Amine oxidase [flavin-containing] A (Homo sapiens, UniProt P21397)
T1 sequence (P21397 whole entry): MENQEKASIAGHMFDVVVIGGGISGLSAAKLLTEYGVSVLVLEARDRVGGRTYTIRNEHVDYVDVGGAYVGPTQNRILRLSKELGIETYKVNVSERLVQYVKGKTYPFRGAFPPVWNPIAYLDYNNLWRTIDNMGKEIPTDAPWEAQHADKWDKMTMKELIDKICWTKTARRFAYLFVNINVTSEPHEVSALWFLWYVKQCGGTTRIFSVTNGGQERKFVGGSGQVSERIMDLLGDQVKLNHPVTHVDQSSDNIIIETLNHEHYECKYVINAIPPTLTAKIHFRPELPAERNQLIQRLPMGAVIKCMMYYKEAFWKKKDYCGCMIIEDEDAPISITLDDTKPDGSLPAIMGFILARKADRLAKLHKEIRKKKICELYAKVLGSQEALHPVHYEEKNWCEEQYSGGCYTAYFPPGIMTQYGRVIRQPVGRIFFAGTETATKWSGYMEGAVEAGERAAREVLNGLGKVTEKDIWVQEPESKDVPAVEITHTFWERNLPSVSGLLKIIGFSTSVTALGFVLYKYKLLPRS
Experiment: DRUGMATRIX: Monoamine Oxidase MAO-A enzyme inhibition (substrate: Kynuramine)
Parameters: species or system BTI-TN-5B1-4
Conditions: bti-tn-5b1-4; Not Active = under 50% inhibition at 10 µM

Which IC50 does the source give for CCC(C)(C)C(=O)O[C@H]1C[C@@H](C)C=C2C=C[C@H](C)[C@H](CC[C@@H]3C[C@@H](O)CC(=O)O3)[C@H]21 [SIMVASTATIN] here?
Its IC50 is “Not Active”.

For CN1C[C@H](CNC(=O)OCc2ccccc2)C[C@@H]2c3cccc4c3c(cn4C)C[C@H]21 [METERGOLINE], which IC50 is on record?
Its IC50 is “Not Active”.

Which IC50 does the source give for CCN(CC)CCNC(=O)c1cc(Cl)c(N)cc1OC [METOCLOPRAMIDE] here?
Its IC50 is “Not Active”.

For Cc1ccc(Cl)c(Nc2ccccc2C(=O)O)c1Cl [MECLOFENAMIC ACID], which IC50 is on record?
Its IC50 is “Not Active”.

Tested on: not listed separately
Experiment: DRUGMATRIX: Calcium Channel Type L, Dihydropyridine radioligand binding (ligand: [3H] Nitrendipine)
Assay type: cell membranes, Rattus norvegicus, Wistar, Cerebral cortex, Membrane
Conditions: Not Active = under 50% inhibition at 10 µM

Which IC50 does the source give for CCC(C)(C)C(=O)O[C@H]1C[C@@H](C)C=C2C=C[C@H](C)[C@H](CC[C@@H]3C[C@@H](O)CC(=O)O3)[C@H]21 [SIMVASTATIN] here?
Its IC50 is “Not Active”.

What about the Ki of the same compound?
Its Ki is “Not Active”.

With CN1C[C@H](CNC(=O)OCc2ccccc2)C[C@@H]2c3cccc4c3c(cn4C)C[C@H]21 [METERGOLINE] as the compound, how does the IC50 read?
Its IC50 is “Not Active”.

What about the Ki of the same compound?
The Ki was “Not Active”.

For CCN(CC)CCNC(=O)c1cc(Cl)c(N)cc1OC [METOCLOPRAMIDE], which IC50 is on record?
The IC50 was “Not Active”.

What about the Ki of the same compound?
The Ki was “Not Active”.

Which IC50 does the source give for Cc1ccc(Cl)c(Nc2ccccc2C(=O)O)c1Cl [MECLOFENAMIC ACID] here?
Its IC50 is “Not Active”.

What about the Ki of the same compound?
The Ki was “Not Active”.

Target: T2, Cathepsin G (Homo sapiens, UniProt P08311);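 also: inhibition of Cathepsin G enzyme activity, tested on an AMC-conjugated peptide substrate; in other assays of this panel Not Active means under 50% inhibition at 10 µM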
T2 sequence (P08311 whole entry): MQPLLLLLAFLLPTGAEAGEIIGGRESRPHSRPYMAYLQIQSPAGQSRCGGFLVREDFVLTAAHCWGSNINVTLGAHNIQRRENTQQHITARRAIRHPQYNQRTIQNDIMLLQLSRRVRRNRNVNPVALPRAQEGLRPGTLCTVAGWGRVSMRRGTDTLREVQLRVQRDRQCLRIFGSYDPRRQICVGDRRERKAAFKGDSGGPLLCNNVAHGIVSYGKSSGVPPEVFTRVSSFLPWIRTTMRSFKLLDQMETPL
Experiment: biochemical
Assay type: tissue-based, Neutrophil
Conditions: neutrophil

With CCC(C)(C)C(=O)O[C@H]1C[C@@H](C)C=C2C=C[C@H](C)[C@H](CC[C@@H]3C[C@@H](O)CC(=O)O3)[C@H]21 [SIMVASTATIN] as the compound, how does the IC50 read?
The IC50 was “Not Active”.

With CN1C[C@H](CNC(=O)OCc2ccccc2)C[C@@H]2c3cccc4c3c(cn4C)C[C@H]21 [METERGOLINE] as the compound, how does the IC50 read?
Its IC50 is “Not Active”.

With CCN(CC)CCNC(=O)c1cc(Cl)c(N)cc1OC [METOCLOPRAMIDE] as the compound, how does the IC50 read?
Its IC50 is “Not Active”.

With Cc1ccc(Cl)c(Nc2ccccc2C(=O)O)c1Cl [MECLOFENAMIC ACID] as the compound, how does the IC50 read?
Its IC50 is “Not Active”.

Target: T3, Angiotensin-converting enzyme (Oryctolagus cuniculus, UniProt P12822);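 also: enzymatic inhibition of angiotensin-converting enzyme measured with FAPGG as the substrate; in other assays of this panel Not Active means under 50% inhibition at 10 µM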
T3 sequence (P12822 whole entry): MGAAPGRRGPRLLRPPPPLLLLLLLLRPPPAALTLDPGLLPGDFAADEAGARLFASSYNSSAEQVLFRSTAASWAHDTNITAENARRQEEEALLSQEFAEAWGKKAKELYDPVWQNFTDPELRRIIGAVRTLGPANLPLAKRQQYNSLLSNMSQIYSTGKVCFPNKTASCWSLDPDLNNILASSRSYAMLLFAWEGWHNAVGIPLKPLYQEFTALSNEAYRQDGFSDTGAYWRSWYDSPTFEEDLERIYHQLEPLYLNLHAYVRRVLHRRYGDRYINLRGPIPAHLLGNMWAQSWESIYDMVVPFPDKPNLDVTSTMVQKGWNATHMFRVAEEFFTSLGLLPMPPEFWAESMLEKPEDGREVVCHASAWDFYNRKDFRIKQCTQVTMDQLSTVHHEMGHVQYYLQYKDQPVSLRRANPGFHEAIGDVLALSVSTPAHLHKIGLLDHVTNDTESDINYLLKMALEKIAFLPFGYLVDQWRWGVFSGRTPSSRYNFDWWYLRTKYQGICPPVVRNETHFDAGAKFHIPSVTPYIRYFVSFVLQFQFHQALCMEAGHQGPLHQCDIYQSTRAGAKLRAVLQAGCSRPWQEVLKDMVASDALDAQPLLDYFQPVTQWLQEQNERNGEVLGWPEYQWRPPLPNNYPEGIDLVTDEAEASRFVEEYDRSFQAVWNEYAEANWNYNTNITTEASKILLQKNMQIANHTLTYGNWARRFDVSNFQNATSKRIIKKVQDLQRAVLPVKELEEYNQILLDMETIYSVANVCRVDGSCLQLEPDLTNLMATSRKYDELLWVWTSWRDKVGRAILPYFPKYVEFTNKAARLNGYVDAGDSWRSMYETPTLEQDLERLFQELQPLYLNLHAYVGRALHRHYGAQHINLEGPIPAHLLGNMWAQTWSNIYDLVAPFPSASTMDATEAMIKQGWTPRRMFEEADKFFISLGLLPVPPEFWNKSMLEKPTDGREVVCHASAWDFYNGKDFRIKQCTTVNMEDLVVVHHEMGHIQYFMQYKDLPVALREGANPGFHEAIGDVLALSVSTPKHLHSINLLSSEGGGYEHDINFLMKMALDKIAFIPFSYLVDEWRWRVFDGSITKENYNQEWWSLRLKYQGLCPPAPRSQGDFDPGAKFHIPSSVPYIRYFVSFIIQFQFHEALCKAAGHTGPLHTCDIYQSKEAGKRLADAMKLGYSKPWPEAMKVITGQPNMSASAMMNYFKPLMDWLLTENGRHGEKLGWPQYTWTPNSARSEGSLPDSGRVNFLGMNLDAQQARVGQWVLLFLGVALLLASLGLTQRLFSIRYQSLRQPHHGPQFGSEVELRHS
Experiment: biochemical
Assay type: tissue-based, Lung
Conditions: not given

For CCC(C)(C)C(=O)O[C@H]1C[C@@H](C)C=C2C=C[C@H](C)[C@H](CC[C@@H]3C[C@@H](O)CC(=O)O3)[C@H]21 [SIMVASTATIN], which IC50 is on record?
Its IC50 is “Not Active”.

For CN1C[C@H](CNC(=O)OCc2ccccc2)C[C@@H]2c3cccc4c3c(cn4C)C[C@H]21 [METERGOLINE], which IC50 is on record?
The IC50 was “Not Active”.

With CCN(CC)CCNC(=O)c1cc(Cl)c(N)cc1OC [METOCLOPRAMIDE] as the compound, how does the IC50 read?
Its IC50 is “Not Active”.

Which IC50 does the source give for Cc1ccc(Cl)c(Nc2ccccc2C(=O)O)c1Cl [MECLOFENAMIC ACID] here?
The IC50 was “Not Active”.

Target: T4, Calcitonin receptor (Homo sapiens, UniProt P30988); also: in other assays of this panel Not Active means under 50% inhibition at 10 µM
T4 sequence (P30988 whole entry): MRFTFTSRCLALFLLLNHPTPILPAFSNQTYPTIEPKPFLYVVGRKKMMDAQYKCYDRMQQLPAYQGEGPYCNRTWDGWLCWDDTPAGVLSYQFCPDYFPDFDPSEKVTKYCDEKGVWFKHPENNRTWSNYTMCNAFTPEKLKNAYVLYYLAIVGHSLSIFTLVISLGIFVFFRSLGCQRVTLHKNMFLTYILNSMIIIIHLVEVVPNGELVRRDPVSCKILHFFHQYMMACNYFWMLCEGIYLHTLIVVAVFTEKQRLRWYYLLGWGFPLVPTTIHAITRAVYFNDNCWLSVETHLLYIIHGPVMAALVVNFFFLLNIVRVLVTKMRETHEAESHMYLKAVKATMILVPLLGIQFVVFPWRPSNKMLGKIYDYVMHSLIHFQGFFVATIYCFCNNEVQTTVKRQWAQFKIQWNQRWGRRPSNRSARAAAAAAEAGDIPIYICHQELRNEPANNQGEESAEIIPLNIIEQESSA
Experiment: not given
Assay type: cell membranes, Membrane
Conditions: t47d

For CCC(C)(C)C(=O)O[C@H]1C[C@@H](C)C=C2C=C[C@H](C)[C@H](CC[C@@H]3C[C@@H](O)CC(=O)O3)[C@H]21 [SIMVASTATIN], which IC50 is on record?
The IC50 was “Not Active”.

For CN1C[C@H](CNC(=O)OCc2ccccc2)C[C@@H]2c3cccc4c3c(cn4C)C[C@H]21 [METERGOLINE], which IC50 is on record?
Its IC50 is “Not Active”.

Which IC50 does the source give for CCN(CC)CCNC(=O)c1cc(Cl)c(N)cc1OC [METOCLOPRAMIDE] here?
The IC50 was “Not Active”.

For Cc1ccc(Cl)c(Nc2ccccc2C(=O)O)c1Cl [MECLOFENAMIC ACID], which IC50 is on record?
Its IC50 is “Not Active”.

Target: Beta-1 adrenergic receptor (Homo sapiens, UniProt P08588)
Experiment: DRUGMATRIX: Adrenergic beta1 radioligand binding (ligand: [125I] Cyanopindolol)
Assay type: cell membranes, CHO-K1, Membrane
Conditions: cho-k1; Not Active = under 50% inhibition at 10 µM

Chain of Beta-1 adrenergic receptor (P08588 whole entry): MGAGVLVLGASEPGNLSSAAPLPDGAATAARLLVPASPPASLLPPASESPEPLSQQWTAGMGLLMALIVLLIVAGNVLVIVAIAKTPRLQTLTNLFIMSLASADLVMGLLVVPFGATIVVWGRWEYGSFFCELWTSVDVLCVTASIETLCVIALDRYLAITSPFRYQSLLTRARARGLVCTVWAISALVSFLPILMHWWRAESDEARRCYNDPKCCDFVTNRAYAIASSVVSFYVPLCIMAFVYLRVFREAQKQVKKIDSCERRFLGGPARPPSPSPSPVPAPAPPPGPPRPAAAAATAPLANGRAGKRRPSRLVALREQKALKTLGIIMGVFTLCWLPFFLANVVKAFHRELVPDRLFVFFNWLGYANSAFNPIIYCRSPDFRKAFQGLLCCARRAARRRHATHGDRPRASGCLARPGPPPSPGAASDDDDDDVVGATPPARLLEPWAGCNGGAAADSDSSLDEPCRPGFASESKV

Which IC50 does the source give for CCC(C)(C)C(=O)O[C@H]1C[C@@H](C)C=C2C=C[C@H](C)[C@H](CC[C@@H]3C[C@@H](O)CC(=O)O3)[C@H]21 [SIMVASTATIN] here?
Its IC50 is “Not Active”.

Which IC50 does the source give for CN1C[C@H](CNC(=O)OCc2ccccc2)C[C@@H]2c3cccc4c3c(cn4C)C[C@H]21 [METERGOLINE] here?
Its IC50 is “Not Active”.

Which IC50 does the source give for CCN(CC)CCNC(=O)c1cc(Cl)c(N)cc1OC [METOCLOPRAMIDE] here?
Its IC50 is “Not Active”.

With Cc1ccc(Cl)c(Nc2ccccc2C(=O)O)c1Cl [MECLOFENAMIC ACID] as the compound, how does the IC50 read?
Its IC50 is “Not Active”.

Target: Acetylcholinesterase (Homo sapiens, UniProt P22303)
Experiment: DRUGMATRIX: Acetylcholinesterase enzyme inhibition (substrate: acetylthiocholine)
Assay type: cell-based, HEK293
Conditions: Not Active = under 50% inhibition at 10 µM; read-out: IC50

Chain of Acetylcholinesterase (P22303 whole entry): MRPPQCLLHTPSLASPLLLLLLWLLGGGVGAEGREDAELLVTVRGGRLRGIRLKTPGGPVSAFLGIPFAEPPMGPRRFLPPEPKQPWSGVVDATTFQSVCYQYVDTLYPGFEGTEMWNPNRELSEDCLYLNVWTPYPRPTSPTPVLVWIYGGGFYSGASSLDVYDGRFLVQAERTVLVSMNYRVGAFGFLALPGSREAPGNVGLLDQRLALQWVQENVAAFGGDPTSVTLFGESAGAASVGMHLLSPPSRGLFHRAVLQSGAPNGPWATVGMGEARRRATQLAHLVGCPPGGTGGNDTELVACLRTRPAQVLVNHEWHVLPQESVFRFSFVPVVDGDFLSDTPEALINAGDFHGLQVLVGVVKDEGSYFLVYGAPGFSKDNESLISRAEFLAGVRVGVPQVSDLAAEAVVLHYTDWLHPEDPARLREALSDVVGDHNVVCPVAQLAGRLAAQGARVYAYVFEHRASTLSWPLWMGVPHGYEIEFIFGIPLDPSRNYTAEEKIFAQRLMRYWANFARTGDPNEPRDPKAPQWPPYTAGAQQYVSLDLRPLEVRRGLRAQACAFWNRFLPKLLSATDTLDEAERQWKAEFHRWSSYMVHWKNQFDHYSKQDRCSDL

With CN1C[C@H](CNC(=O)OCc2ccccc2)C[C@@H]2c3cccc4c3c(cn4C)C[C@H]21 [METERGOLINE] as the compound, how does the IC50 read?
The IC50 was 1340 nM.

Same assay, conditions: hek293; Not Active = under 50% inhibition at 10 µM

For CCC(C)(C)C(=O)O[C@H]1C[C@@H](C)C=C2C=C[C@H](C)[C@H](CC[C@@H]3C[C@@H](O)CC(=O)O3)[C@H]21 [SIMVASTATIN], which IC50 is on record?
Its IC50 is “Not Active”.

Which IC50 does the source give for CCN(CC)CCNC(=O)c1cc(Cl)c(N)cc1OC [METOCLOPRAMIDE] here?
The IC50 was “Not Active”.

Which IC50 does the source give for Cc1ccc(Cl)c(Nc2ccccc2C(=O)O)c1Cl [MECLOFENAMIC ACID] here?
Its IC50 is “Not Active”.
